Read-outs that look alike come from different tables or passages of the source.

Experimental findings from US20260284011A1, “COMPOUNDS FOR RESTORING SUSCEPTIBILITY TO BETA-LACTAM ANTIBIOTICS” (UNIVERSITY OF NOTRE DAME DU LAC, priority 2023, published 2026) are described below.

Holding throughout (test): MIC determination and potentiation assay (microdilution broth)
Common to all, as to format: cell-based

In test [1] the test system is 626 (NRS382), MRSA, SCCmec II, bla +. The conditions noted are these: Staphylococcus aureus. The protocol: (§1) MICs were determined by the microdilution broth method following the Clinical & Laboratory Standards Institute (CLSI) guidelines. […] Experiments were performed in triplicate in 96-well plates with 5×10^5 CFU·mL^−1 of bacteria. […] The MIC was the concentration for which bacterial growth was not observed.

Test [2] has as its system 880, MRSA, SCCmec IV, bla +. The protocol: as §1
Test [3] deals with AIS 1000505 (VRS10), MRSA, vancomycin-resistant, SCCmec II, bla +. The conditions noted are these: Staphylococcus aureus. The protocol: as §1
The subject of test [4] is CA-263 (NRS647), MRSA, SCCmec IV, bla +. Particulars: Staphylococcus aureus. The protocol:
as §1

Test [5] has as its system CO-34 (NRS662), MRSA, SCCmec IV, bla +. The conditions noted are these: Staphylococcus aureus. As for the experimental part: as §1
The subject of test [6] is CT-19 (NRS676), MRSA, SCCmec IV, bla +. Particulars: Staphylococcus aureus. As for the experimental part:
as §1

Test [7] has as its system FPR3757, MRSA, USA300 clone, SCCmec IV, bla +. Particulars: Staphylococcus aureus. As for the experimental part: as §1
The subject of test [8] is H2138 (NRS271), MRSA, SCCmec IV, bla +. Particulars: Staphylococcus aureus. As for the experimental part: as §1
The test system of test [9] is HFH 30495, MRSA, SCCmec II, bla +. The conditions noted are these: Staphylococcus aureus. The protocol: as §1
Test [10] deals with HIP06297 (NRS17), MRSA, SCCmec II, bla +. The conditions noted are these: Staphylococcus aureus. As for the experimental part:
as §1

Test [11] relates to HIP13036 (NRS404), MRSA/VISA, SCCmec II, bla +. Particulars: Staphylococcus aureus. The protocol:
as §1

Test [12] has as its system HIP5836 (NRS4), MRSA/VISA, SCCmec II, bla +. Particulars: Staphylococcus aureus, agent alone. The protocol:
as §1

Test [13] concerns MW2 (NRS123), MRSA, SCCmec IV, bla +. Particulars: Staphylococcus aureus. The protocol: as §1
Test [14] has as its system N315 (NRS70), MRSA, SCCmec II, bla +. Particulars: Staphylococcus aureus. The protocol: as §1
The subject of test [15] is NRS128, MSSA, bla +. Particulars: Staphylococcus aureus. The protocol: as §1
In test [16] the test system is TN-124 (NRS735), MRSA, SCCmec II, bla +. The conditions noted are these: Staphylococcus aureus. As for the experimental part:
as §1

Test [17] relates to USA300-0114 (NRS384), MRSA, SCCmec IV, bla +. Particulars: Staphylococcus aureus. As for the experimental part:
as §1

Setting [18] is: 626 (NRS382), agent alone, read-out: MIC.
Setting [19] is: Staphylococcus aureus, 880, agent alone, read-out: MIC.
Where [20] appears, read: AIS 1000505 (VRS10), agent alone, read-out: MIC.
Where [21] appears, read: CA-263 (NRS647), agent alone, read-out: MIC.
[22] abbreviates: CO-34 (NRS662), agent alone, read-out: MIC.
[23] abbreviates: CT-19 (NRS676), agent alone, read-out: MIC.
The mark [24] stands for this setting: FPR3757, agent alone, read-out: MIC.
Setting [25] is: H2138 (NRS271), agent alone, read-out: MIC.
The mark [26] stands for this setting: HFH 30495, agent alone, read-out: MIC.
Where [27] appears, read: HIP06297 (NRS17), agent alone, read-out: MIC.
Setting [28] is: HIP13036 (NRS404), agent alone, read-out: MIC.
[29] abbreviates: MW2 (NRS123), agent alone, read-out: MIC.
The mark [30] stands for this setting: N315 (NRS70), agent alone, read-out: MIC.
The mark [31] stands for this setting: NRS128, agent alone, read-out: MIC.
[32] abbreviates: USA300-0114 (NRS384), agent alone, read-out: MIC.

A word on the MIC: it is the lowest concentration that inhibits growth of the organism. With `CCO/N=C(\C(=O)N[C@@H]1C(=O)N2C(C(=O)[O-])=C(Sc3nc(-c4cc[n+](C)cc4)cs3)CS[C@H]12)c1nsc(N)n1` [CPT, ceftaroline], the MIC in test [1] (setting [18]) worked out at 1 µg/mL; in test [2] (setting [19]), 1 µg/mL; in [3] (setting [20]) it was 1 µg/mL; in [4] (setting [21]), 0.5 µg/mL; in test [5] (setting [22]), 1 µg/mL; in [6] (setting [23]), 1 µg/mL. The MIC in test [7] (setting [24]) was determined as 0.5 µg/mL; in [8] (setting [25]), 1 µg/mL; in test [9] (setting [26]), 1 µg/mL; in [10] (setting [27]) it was 1 µg/mL; in test [11] (setting [28]) it was 1 µg/mL; in [12], 0.25 µg/mL. Besides, the MIC was 1 µg/mL in [13] (setting [29]); 1 µg/mL in [14] (setting [30]); 0.06 µg/mL in [15] (setting [31]); 1 µg/mL in test [16]; 0.5 µg/mL in [17] (setting [32]).
Regarding `N#Cc1ccc2nc(SCB(O)O)n(Cc3ccc(C(F)(F)F)cc3C(F)(F)F)c2c1` [Compound 4, (((1-(2,4-bis(trifluoro-methyl)benzyl)-6-cyano-1H-benzo[d]imidazol-2-yl)thio)methyl)boronic acid], the MIC in test [1] (setting [18]), in test [2] (setting [19]), in test [3] (setting [20]), in test [4] (setting [21]), in test [5] (setting [22]) and in test [6] (setting [23]) was 16 µg/mL each time. For the same compound, the minimal inhibitory concentration (MIC) in test [7] (setting [24]) was 16 µg/mL; in test [8] (setting [25]), 16 µg/mL; in test [9] (setting [26]), 16 µg/mL; in test [10] (setting [27]) it was 32 µg/mL; in test [11] (setting [28]), 8 µg/mL; in test [12], 16 µg/mL. The MIC in test [13] (setting [29]), in [14] (setting [30]), in test [15] (setting [31]), in test [16] and in [17] (setting [32]) was 16 µg/mL throughout.
As for `CO[C@@]1(NC(=O)Cc2cccs2)C(=O)N2C(C(=O)O)=C(COC(N)=O)CS[C@@H]21` [FOX, cefoxitin], the MIC was 512 µg/mL in test [1]; 64 µg/mL in test [2] (setting [19]); 128 µg/mL in [3]; 32 µg/mL in test [4] (setting [21]); 64 µg/mL in test [5] (setting [22]); 64 µg/mL in [6] (setting [23]). For the same compound, the MIC in test [7] (setting [24]) is 64 µg/mL; in test [8], 128 µg/mL; in test [9] (setting [26]), 256 µg/mL; in test [10] (setting [27]) it was 256 µg/mL; in test [11] (setting [28]) it was 256 µg/mL; in test [12], 64 µg/mL. In addition, the minimal inhibitory concentration (MIC) is 64 µg/mL in test [13] (setting [29]); 128 µg/mL in test [14]; 4 µg/mL in test [15]; 128 µg/mL in [16]; 64 µg/mL in test [17] (setting [32]).
As for `C[C@@H](O)[C@H]1C(=O)N2C(C(=O)O)=C(S[C@@H]3CN[C@H](C(=O)N(C)C)C3)[C@H](C)[C@H]12` [MEM, meropenem], the MIC in [1] (setting [18]) stood at 32 µg/mL; in [2] (setting [19]), 16 µg/mL; in test [3] (setting [20]), 32 µg/mL; in [4] (setting [21]), 4 µg/mL; in [5] (setting [22]), 8 µg/mL; in [6] (setting [23]) it was 4 µg/mL. Further, the minimum inhibitory concentration (MIC) in [7] (setting [24]) turned out to be 4 µg/mL; in [8] (setting [25]), 16 µg/mL; in test [9] (setting [26]) it was 32 µg/mL; in [10] (setting [27]) it was 4 µg/mL; in [11] (setting [28]) it was 8 µg/mL; in test [12], 8 µg/mL. For the same compound, the MIC was 4 µg/mL in test [13] (setting [29]); 16 µg/mL in test [14] (setting [30]); 0.13 µg/mL in test [15] (setting [31]); 8 µg/mL in test [16]; 4 µg/mL in test [17] (setting [32]).
As to `Cc1onc(-c2ccccc2)c1C(=O)N[C@@H]1C(=O)N2[C@@H]1SC(C)(C)[C@@H]2C(=O)O` [OXA, oxacillin], the minimum inhibitory concentration (MIC) in [1] worked out at 512 µg/mL; in test [2] (Staphylococcus aureus) it was 256 µg/mL; in test [3], 256 µg/mL; in [4], 64 µg/mL; in test [5], 64 µg/mL; in test [6], 256 µg/mL. The MIC in test [7] worked out at 64 µg/mL; in [8], 256 µg/mL; in test [9] it was 512 µg/mL; in test [10], 2 µg/mL; in test [11], 256 µg/mL; in [13] it was 64 µg/mL. The minimal inhibitory concentration (MIC) in test [15] came to 0.5 µg/mL; in test [16], 256 µg/mL; in [17], 128 µg/mL.
